According to ChEMBL document CHEMBL3286290, “In vitro screening of pentamidine analogs against bacterial and fungal strains” (Bioorg Med Chem Lett, 2014):
≈ marks a conversion by molar mass, not a printed value.

Key:
Assay type in all cases: functional
Candida albicans [1] = test: Antifungal activity against Candida albicans ATCC 2091 assessed as growth inhibition by M7-A6 method
Saccharomyces cerevisiae = test: Antifungal activity against Saccharomyces cerevisiae ATCC 9763 assessed as growth inhibition by M7-A6 method
Escherichia coli [2] = test: Antibacterial activity against Escherichia coli ATCC 10536 assessed as growth inhibition by M7-A6 method
Bacillus subtilis = test: Antibacterial activity against Bacillus subtilis ATCC 6633 assessed as growth inhibition by M7-A6 method
Pseudomonas aeruginosa [3] = test: Antibacterial activity against Pseudomonas aeruginosa ATCC 9027 assessed as growth inhibition by M7-A6 method
Candida parapsilosis = test: Antifungal activity against Candida parapsilosis ATCC 22019 assessed as growth inhibition by M7-A6 method; conditions: Lodderomyces parapsilosis
Candida albicans [4] = test: Antifungal activity against Candida albicans ATCC 10231 assessed as growth inhibition by M7-A6 method
Aspergillus brasiliensis = test: Antifungal activity against Aspergillus brasiliensis ATCC 16404 assessed as growth inhibition by M7-A6 method
Escherichia coli [5] = test: Antibacterial activity against Escherichia coli ATCC 8739 assessed as growth inhibition by M7-A6 method
Pseudomonas aeruginosa [6] = test: Antibacterial activity against Pseudomonas aeruginosa ATCC 15442 assessed as growth inhibition by M7-A6 method
Bacillus cereus = test: Antibacterial activity against Bacillus cereus ATCC 11778 assessed as growth inhibition by M7-A6 method
Micrococcus luteus [7] = test: Antibacterial activity against Micrococcus luteus ATCC 9341 assessed as growth inhibition by M7-A6 method
Staphylococcus aureus [8] = test: Antibacterial activity against Staphylococcus aureus ATCC 6538P assessed as growth inhibition by M7-A6 method
Staphylococcus aureus [9] = test: Antibacterial activity against Staphylococcus aureus ATCC 6538 assessed as growth inhibition by M7-A6 method
Micrococcus luteus [10] = test: Antibacterial activity against Micrococcus luteus ATCC 10240 assessed as growth inhibition by M7-A6 method
[11] = Antifungal activity against Zygosaccharomyces rouxii ATCC 28253 assessed as growth inhibition by M7-A6 method
Staphylococcus aureus [12] = test: Antibacterial activity against penicillin, erythromycin, amikacin, clindamycin, ciprofloxacin, methicillin-resistant Staphylococcus aureus 495/11 assessed as growth inhibition by M7-A6 method
Staphylococcus aureus [13] = test: Antibacterial activity against penicillin, erythromycin, amikacin, clindamycin, ciprofloxacin, methicillin-resistant Staphylococcus aureus 573/12 assessed as growth inhibition by M7-A6 method
Staphylococcus aureus [14] = test: Antibacterial activity against erythromycin, amikacin, clindamycin, ciprofloxacin, methicillin-resistant Staphylococcus aureus 15K/11 assessed as growth inhibition by M7-A6 method
Staphylococcus aureus [15] = test: Antibacterial activity against penicillin, erythromycin, clindamycin, ciprofloxacin, methicillin-resistant Staphylococcus aureus 19K/11 assessed as growth inhibition by M7-A6 method
Staphylococcus aureus [16] = test: Antibacterial activity against penicillin, erythromycin, amikacin, clindamycin, ciprofloxacin, methicillin-resistant Staphylococcus aureus 572/12 assessed as growth inhibition by M7-A6 method

SMILES	MIC (Candida albicans [1]) [µM]	MIC (Saccharomyces cerevisiae) [µM]	MIC (Escherichia coli [2]) [µM]	MIC (Bacillus subtilis) [µM]	MIC (Pseudomonas aeruginosa [3]) [µM]	MIC (Candida parapsilosis) [µM]	MIC (Candida albicans [4]) [µM]	MIC (Aspergillus brasiliensis) [µM]	MIC (Escherichia coli [5]) [µM]	MIC (Pseudomonas aeruginosa [6]) [µM]	MIC (Bacillus cereus) [µM]	MIC (Micrococcus luteus [7]) [µM]	MIC (Staphylococcus aureus [8]) [µM]	MIC (Staphylococcus aureus [9]) [µM]	MIC (Micrococcus luteus [10]) [µM]	MIC [11] [µM]	also measured
N=C(N)c1ccc(OCCOCCOc2ccc(C(=N)N)cc2)cc1	> 22200	11100 (≈ 3790 µg/mL)	550 (≈ 188 µg/mL)	550 (≈ 188 µg/mL)	11100 (≈ 3790 µg/mL)	66 (≈ 22.6 µg/mL)	> 22200	> 22200	550 (≈ 188 µg/mL)	11100 (≈ 3790 µg/mL)	550 (≈ 188 µg/mL)	4.4 (≈ 1.51 µg/mL)	550 (≈ 188 µg/mL)	550 (≈ 188 µg/mL)	11 (≈ 3.77 µg/mL)	–	–
COc1cc(C(=N)N)ccc1OCCN(CCOc1ccc(C(=N)N)cc1OC)S(=O)(=O)c1ccc(NC(C)=O)cc1	1430 (≈ 856 µg/mL)	1430 (≈ 856 µg/mL)	3580 (≈ 2140 µg/mL)	720 (≈ 431 µg/mL)	7160 (≈ 4290 µg/mL)	360 (≈ 216 µg/mL)	180 (≈ 108 µg/mL)	7160 (≈ 4290 µg/mL)	3580 (≈ 2140 µg/mL)	7160 (≈ 4290 µg/mL)	72 (≈ 43.1 µg/mL)	72 (≈ 43.1 µg/mL)	360 (≈ 216 µg/mL)	140 (≈ 83.8 µg/mL)	89 (≈ 53.3 µg/mL)	1430 (≈ 856 µg/mL)	–
COc1cc(C(=N)N)cc(OC)c1OCCN(CCOc1c(OC)cc(C(=N)N)cc1OC)S(=O)(=O)c1ccccc1	7040 (≈ 4240 µg/mL)	7040 (≈ 4240 µg/mL)	7040 (≈ 4240 µg/mL)	70 (≈ 42.1 µg/mL)	7040 (≈ 4240 µg/mL)	7040 (≈ 4240 µg/mL)	7040 (≈ 4240 µg/mL)	7040 (≈ 4240 µg/mL)	7040 (≈ 4240 µg/mL)	7040 (≈ 4240 µg/mL)	88 (≈ 52.9 µg/mL)	2.8 (≈ 1.68 µg/mL)	70 (≈ 42.1 µg/mL)	70 (≈ 42.1 µg/mL)	7 (≈ 4.21 µg/mL)	7040 (≈ 4240 µg/mL)	–
COc1cc(C(=N)N)cc(OC)c1OCCN(CCOc1c(OC)cc(C(=N)N)cc1OC)S(=O)(=O)c1ccc(N)cc1	> 12800	> 12800	6410 (≈ 3950 µg/mL)	320 (≈ 197 µg/mL)	6410 (≈ 3950 µg/mL)	> 12800	> 12800	> 12800	6410 (≈ 3950 µg/mL)	6410 (≈ 3950 µg/mL)	320 (≈ 197 µg/mL)	38 (≈ 23.4 µg/mL)	320 (≈ 197 µg/mL)	320 (≈ 197 µg/mL)	64 (≈ 39.5 µg/mL)	–	–
N=C(N)c1ccc(OCCSCCOc2ccc(C(=N)N)cc2)cc1	140 (≈ 50.2 µg/mL)	290 (≈ 104 µg/mL)	580 (≈ 208 µg/mL)	140 (≈ 50.2 µg/mL)	1740 (≈ 624 µg/mL)	23 (≈ 8.24 µg/mL)	140 (≈ 50.2 µg/mL)	70 (≈ 25.1 µg/mL)	140 (≈ 50.2 µg/mL)	2320 (≈ 832 µg/mL)	69.5 (≈ 24.9 µg/mL)	4.6 (≈ 1.65 µg/mL)	140 (≈ 50.2 µg/mL)	69.5 (≈ 24.9 µg/mL)	23 (≈ 8.24 µg/mL)	70 (≈ 25.1 µg/mL)	MIC (Staphylococcus aureus [12]): 2320 µM (≈ 832 µg/mL); MIC (Staphylococcus aureus [13]): 290 µM (≈ 104 µg/mL); MIC (Staphylococcus aureus [14]): 1160 µM (≈ 416 µg/mL); MIC (Staphylococcus aureus [15]): 140 µM (≈ 50.2 µg/mL); MIC (Staphylococcus aureus [16]): 290 µM (≈ 104 µg/mL)
CN(CCCCCN(C)c1ccc(C(=N)N)cc1)c1ccc(C(=N)N)cc1	120 (≈ 44 µg/mL)	240 (≈ 88 µg/mL)	9780 (≈ 3580 µg/mL)	98 (≈ 35.9 µg/mL)	> 19600	20 (≈ 7.33 µg/mL)	120 (≈ 44 µg/mL)	9780 (≈ 3580 µg/mL)	9780 (≈ 3580 µg/mL)	> 19600	59 (≈ 21.6 µg/mL)	3.9 (≈ 1.43 µg/mL)	120 (≈ 44 µg/mL)	59 (≈ 21.6 µg/mL)	19.5 (≈ 7.15 µg/mL)	120 (≈ 44 µg/mL)	–
N=C(N)c1ccc(NCCOCCNc2ccc(C(=N)N)cc2)cc1	5920 (≈ 2020 µg/mL)	11800 (≈ 4030 µg/mL)	11800 (≈ 4030 µg/mL)	590 (≈ 201 µg/mL)	> 23700	71 (≈ 24.2 µg/mL)	5920 (≈ 2020 µg/mL)	5920 (≈ 2020 µg/mL)	2370 (≈ 807 µg/mL)	> 23700	590 (≈ 201 µg/mL)	24 (≈ 8.17 µg/mL)	590 (≈ 201 µg/mL)	590 (≈ 201 µg/mL)	71 (≈ 24.2 µg/mL)	5920 (≈ 2020 µg/mL)	–
CN(CCOc1ccc(C(=N)N)cc1)CCOc1ccc(C(=N)N)cc1	> 21100	–	21100 (≈ 7500 µg/mL)	2110 (≈ 750 µg/mL)	> 21100	10600 (≈ 3770 µg/mL)	> 21100	–	21100 (≈ 7500 µg/mL)	> 21100	1060 (≈ 377 µg/mL)	1060 (≈ 377 µg/mL)	10600 (≈ 3770 µg/mL)	21100 (≈ 7500 µg/mL)	1060 (≈ 377 µg/mL)	–	–
